According to the supplement of paper PMC10307832:

Tests used:
Assay in all cases: relative viability (nuclei count vs DMSO), 5 days (fraction); higher = more cells survive
Erlotinib + Crizotinib = compound: C#Cc1cccc(Nc2ncnc3cc(OCCOC)c(OCCOC)cc23)c1 [Erlotinib] + C[C@@H](Oc1cc(-c2cnn(C3CCNCC3)c2)cnc1N)c1c(Cl)ccc(F)c1Cl [Crizotinib] (partner 1 µM)
Method in brief: (§1)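 Lung cancer cell lines were seeded in 1536-well plates and dosed by pin tool the next day, with either a single drug or a fixed anchor-drug dose combined with five library-drug doses (not always all listed) spaced in √10 steps. Five days later, one step fixed the cells and stained their nuclei (final 0.05% Triton X-100, 1% formaldehyde, 1 ug/ml Hoechst), and nuclei were counted on 4× images. Relative viability is the nuclei count in treated wells divided by the count in vehicle wells, and each value is the median of duplicate plates.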

Erlotinib + Foretinib = compound: C#Cc1cccc(Nc2ncnc3cc(OCCOC)c(OCCOC)cc23)c1 [Erlotinib] + COc1cc2c(Oc3ccc(NC(=O)C4(C(=O)Nc5ccc(F)cc5)CC4)cc3F)ccnc2cc1OCCCN1CCOCC1 [Foretinib] (partner 0.25 µM)
Method in brief: as §1

Erlotinib + Decitabine = compound: C#Cc1cccc(Nc2ncnc3cc(OCCOC)c(OCCOC)cc23)c1 [Erlotinib] + Nc1ncn([C@H]2C[C@H](O)[C@@H](CO)O2)c(=O)n1 [Decitabine] (partner 2 µM)
Method in brief: as §1

Erlotinib + Dasatinib = compound: C#Cc1cccc(Nc2ncnc3cc(OCCOC)c(OCCOC)cc23)c1 [Erlotinib] + Cc1nc(Nc2ncc(C(=O)Nc3c(C)cccc3Cl)s2)cc(N2CCN(CCO)CC2)n1 [Dasatinib] (partner 0.075 µM)
Method in brief: as §1

Erlotinib + Trametinib = compound: C#Cc1cccc(Nc2ncnc3cc(OCCOC)c(OCCOC)cc23)c1 [Erlotinib] + CC(=O)Nc1cccc(-n2c(=O)n(C3CC3)c(=O)c3c(Nc4ccc(I)cc4F)n(C)c(=O)c(C)c32)c1 [Trametinib] (partner 0.02 µM)
Method in brief: as §1

Cell Line	relative viability (Erlotinib + Crizotinib; first compound 0.02 µM)	relative viability (Erlotinib + Crizotinib; first compound 0.2 µM)	relative viability (Erlotinib + Crizotinib; first compound 0.6325 µM)	relative viability (Erlotinib + Crizotinib; first compound 2 µM)	relative viability (Erlotinib + Foretinib; first compound 0.02 µM)	relative viability (Erlotinib + Foretinib; first compound 0.2 µM)	relative viability (Erlotinib + Foretinib; first compound 0.6325 µM)	relative viability (Erlotinib + Foretinib; first compound 2 µM)	relative viability (Erlotinib + Decitabine; first compound 0.02 µM)	relative viability (Erlotinib + Decitabine; first compound 0.2 µM)	relative viability (Erlotinib + Decitabine; first compound 0.6325 µM)	relative viability (Erlotinib + Decitabine; first compound 2 µM)	relative viability (Erlotinib + Dasatinib; first compound 0.02 µM)	relative viability (Erlotinib + Dasatinib; first compound 0.2 µM)	relative viability (Erlotinib + Dasatinib; first compound 0.6325 µM)	relative viability (Erlotinib + Dasatinib; first compound 2 µM)	relative viability (Erlotinib + Trametinib; first compound 0.02 µM)	relative viability (Erlotinib + Trametinib; first compound 0.2 µM)	relative viability (Erlotinib + Trametinib; first compound 0.6325 µM)	relative viability (Erlotinib + Trametinib; first compound 2 µM)
NCI-H2347	0.678	0.595	0.723	0.646	0.877	0.841	1.08	0.61	0.633	0.642	0.589	0.576	0.371	0.309	0.289	0.296	0.268	0.482	0.275	0.285
NCI-H1734	0.644	0.653	0.753	0.654	0.789	–	0.921	0.768	0.488	0.485	0.463	0.509	0.574	0.482	0.473	0.428	0.74	0.718	0.619	0.634
LCLC-97TM1	0.44	–	0.376	0.487	0.894	0.89	0.963	0.791	0.224	0.254	0.234	0.256	0.749	0.794	0.967	0.782	0.197	0.197	0.163	0.168
HOP-62	0.885	0.989	0.965	0.972	1.22	1.08	1.15	0.89	0.232	0.221	0.187	0.241	0.695	0.583	–	0.567	0.35	0.364	0.452	0.36
NCI-H2405	0.957	0.838	0.958	0.717	–	1.02	1.09	1.01	–	0.706	0.647	0.629	0.214	0.224	0.201	0.195	0.543	0.574	0.613	0.55
HCC-78	0.266	0.254	0.271	0.217	0.477	0.42	0.362	0.322	0.728	0.743	0.705	0.584	0.319	0.36	0.364	0.225	0.768	0.524	0.683	0.58
RERF-LC-KJ	0.85	0.837	0.781	0.645	0.875	0.834	0.803	0.715	0.638	0.62	0.649	0.582	0.89	0.658	0.662	0.583	0.913	0.774	0.799	0.613
NCI-H1915	0.948	0.832	0.919	0.86	1.08	1.2	1.12	1.1	0.288	0.266	0.272	0.269	0.338	0.376	0.327	0.273	0.304	0.308	0.329	0.285
